Structures can show the parent of a compound that is named as a salt.
Tests used:
[1] = target: 5-HT7 (Homo sapiens, UniProt P34969); test: 5-HT7 binding
From the text: Further, the compounds of the invention may be tested in binding assays and functional activity assays by well known methods for other physiologically important receptors such as, but not limited to, the hERO channel, other serotonin receptors (specifically 5-HT1B, 5-HT1D, receptors, lack of agonist activity at 5-HT2B receptors, 5-HT2C, 5-HT5, 5-HT6, and 5-HT7 receptors), dopaminergic receptors (specifically D1, D2, and D3), GABAA receptors, adrenergic receptors and monoamine transporters.

[2] = target: T1, 5-HT2A Receptor (Rattus norvegicus, UniProt P14842); test: 5-HT2A receptor occupancy (MDL 100907 tracer); assay type: in vivo; conditions: oral gavage, RO 1 hr. after dosing
T1 construct: from tissue; host or cells: rat brain (frontal cortex against cerebellum), in vivo
Description: Briefly, male Sprague-Dawley rats (Harlan Sprague-Dawley, Indianapolis, Ind.) weighing approximately 230-280 grams are given ad lib access to food and water until the beginning of the 3-hr. experimental protocol. 1 mg/kg ketanserin (non-selective 5-HT2A antagonist) is used as a positive control to establish assay validity. Test compounds or control are administered by oral gavage in a vehicle comprised of 20% hydroxypropyl beta-cyclodextrin. MDL 100907 ((R)-(+)-α-(2,3-Dimethoxyphenyl)-1-[2-(4-fluorophenyl)ethyl]-4-piperidinemethanol), a selective 5-HT2A antagonist, is used as a tracer. […] It is at the time of tracer administration that RO is considered to be measured. […] The level of MDL 100907 tracer is measured in each cortical and cerebellar sample. RO is calculated using the well-established ratio method which employs a region of high receptor density representative of total binding (frontal cortex) normalized by an area without or with very low levels of receptor (cerebellum). […]
Cortex and cerebellar samples are weighed and placed in conical centrifuge tubes on ice. […] Standards are prepared by adding known quantities of analyte to brain tissue samples from non-treated rats and processing as described above. […]

Sequence of 5-HT7 (P34969 whole entry, species assumed): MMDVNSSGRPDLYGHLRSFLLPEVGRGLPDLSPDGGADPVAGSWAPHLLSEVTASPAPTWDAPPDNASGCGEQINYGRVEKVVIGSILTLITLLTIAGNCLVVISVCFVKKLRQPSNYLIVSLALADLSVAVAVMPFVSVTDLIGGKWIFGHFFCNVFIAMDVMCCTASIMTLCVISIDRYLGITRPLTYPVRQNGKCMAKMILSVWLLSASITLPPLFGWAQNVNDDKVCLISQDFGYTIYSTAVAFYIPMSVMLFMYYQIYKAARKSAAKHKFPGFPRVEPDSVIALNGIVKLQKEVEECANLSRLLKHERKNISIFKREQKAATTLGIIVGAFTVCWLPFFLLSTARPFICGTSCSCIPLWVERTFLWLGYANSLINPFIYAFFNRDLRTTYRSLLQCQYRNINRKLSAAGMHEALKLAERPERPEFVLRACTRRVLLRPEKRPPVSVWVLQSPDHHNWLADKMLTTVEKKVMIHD
T1 sequence (P14842 whole entry): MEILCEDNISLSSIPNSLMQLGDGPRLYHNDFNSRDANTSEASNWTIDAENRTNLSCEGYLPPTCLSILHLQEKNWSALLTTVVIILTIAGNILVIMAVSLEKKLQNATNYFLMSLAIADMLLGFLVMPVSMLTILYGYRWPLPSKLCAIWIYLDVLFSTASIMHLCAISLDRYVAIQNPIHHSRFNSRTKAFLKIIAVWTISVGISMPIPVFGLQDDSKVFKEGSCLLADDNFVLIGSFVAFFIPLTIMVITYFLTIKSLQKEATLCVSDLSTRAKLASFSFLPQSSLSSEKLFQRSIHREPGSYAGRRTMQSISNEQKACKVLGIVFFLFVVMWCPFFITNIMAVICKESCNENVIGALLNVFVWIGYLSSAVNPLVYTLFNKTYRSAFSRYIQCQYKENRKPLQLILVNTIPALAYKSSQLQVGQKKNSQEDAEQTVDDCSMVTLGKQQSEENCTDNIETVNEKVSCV

`Cc1ccc2c(c1)Oc1sc(C)cc1C(N1CCN(CC(C)(C)C(=O)O)CC1)=N2` [Example 2, 3-[4-(2,8-Dimethylthieno[2,3-b][1,5]benzoxazepin-4-yl)piperazin-1-yl]-2,2-dimethyl-propanoic acid dihydrochloride] showed a Ki [1] greater than 2060 nM and an ED50 [2] of 0.09 mg/kg.
